The experiment deals with JAK2-JH1JH2 (Homo sapiens (Human), UniProt O60674). As to the kind of experiment: Enzymatic inhibition assay (HTMS), JAK2. The format is biochemical. To be noted: 30 μM ATP; read-out: JAK2_I_JH1JH2 IC50. From the text:
JAK1-JH1JH2 (574-1154 with a His-GST Tag and a C-terminal tev (ENLYFQ-G) cleavage site), JAK3-JH1JH2 (512-1124 with a GST Tag and a C-terminal tev (ENLYFQ-G) cleavage site), and Tyk2-JH1JH2 (8H_tev_580-1182-C936A-C1142A with a C-terminal tev (ENLYFQ-G) cleavage site) were purified internally. […] LC/MS grade water and acetonitrile (ACN), were purchased from HoneyWell, Burdick & Jackson (Muskegon, Mich., USA). Dimethylsulfoxide 99.8% (DMSO) and trifluoroacetic acid 99.5% (TFA) were purchased from EMD Chemical (Gibbstown, N.J., USA). Adenosine triphosphate (ATP), 4-morpholinepropanesulfonic acid (MOPS), magnesium chloride (MgCl2), ethylenediaminetetraacetic acid (EDTA), dithiothreitol (DTT), formic acid >95% (FA) and Tween-20 were purchased from Sigma (St Louis, Mo., USA). 384-well polypropylene plates, Cat#781280 were purchased from Greiner (Monroe, N.C.), RapidFire™ cartridge A C4 Column (Agilent Technologies, Santa Clara, Calif.). […]
11-point dosing series were made for each compound by serially diluting 1:3 or 1:4 in DMSO, with point 12 being a DMSO control. […] Compound inhibition was assessed by a decrease of the phosphorylated product levels in sample wells compared to the non-inhibited enzyme reaction. […]

Molecules are shown by their SMILES.

What is called IC50 is the midpoint of a concentration-inhibition curve.

JAK2-JH1JH2, sequence (O60674 532-1132): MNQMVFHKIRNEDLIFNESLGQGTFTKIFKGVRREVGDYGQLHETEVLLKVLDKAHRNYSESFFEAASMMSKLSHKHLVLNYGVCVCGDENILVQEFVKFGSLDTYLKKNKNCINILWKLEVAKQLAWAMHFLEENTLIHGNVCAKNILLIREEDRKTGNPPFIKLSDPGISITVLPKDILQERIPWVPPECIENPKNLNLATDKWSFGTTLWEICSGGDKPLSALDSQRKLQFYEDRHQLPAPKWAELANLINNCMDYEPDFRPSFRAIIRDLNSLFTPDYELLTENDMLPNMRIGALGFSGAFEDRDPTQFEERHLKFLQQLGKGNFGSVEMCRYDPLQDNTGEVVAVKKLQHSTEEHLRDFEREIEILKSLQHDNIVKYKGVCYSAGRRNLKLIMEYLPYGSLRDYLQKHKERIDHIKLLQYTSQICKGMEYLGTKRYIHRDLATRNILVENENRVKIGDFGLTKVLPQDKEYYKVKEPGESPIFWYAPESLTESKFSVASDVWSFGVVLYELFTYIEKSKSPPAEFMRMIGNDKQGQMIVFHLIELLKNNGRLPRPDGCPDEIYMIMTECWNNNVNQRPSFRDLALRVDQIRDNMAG

With `N#CC[C@H]1CC[C@H](n2c(-c3c[nH]cn3)nc3cnc4[nH]ccc4c32)CC1` [Ex. 2, 2-((1r,4r)-4-(2-(1H-Imidazol-4-yl)imidazo[4,5-d]pyrrolo[2,3-b]pyridin-1(6H)-yl)cyclohexyl)acetonitrile], the IC50 stood at 1 nM.
